Test results from US9199862B2, “Method for adsorbing fluorocarboxylic acid having ether bond and method for collecting same” (DAIKIN INDUSTRIES, LTD., priority 2009, dated 2015).

What was measured:
solubility in water = format: physicochemical; settings: normal temperature
Description: A fluorocarboxylic acid having an ether bond, for example, 2,3,3,3-tetrafluoro-2-[1,1,2,3,3,3-hexafluoro-2-(trifluoromethoxy)propoxy]-propanoic acid has a solubility in water of about 10% at normal temperature, which is about 50 times of the solubility of perfluorooctanoic acid (PFOA) in water. Therefore, the adsorption rate of general active carbon, for example, general-purpose active carbon for waste water which was conventionally used is 5% or less at normal temperature and pH 7.

[1] = adsorption and desorption by heating the active carbon in a dryer at 99° C. (Example 3); format: physicochemical; settings: Tables 3 and 4, 99° C. for 48 hours
Method: An active carbon (Specific surface area: 500-2,000 m^2/g) (0.1 g), to which 2,3,3,3-tetrafluoro-2-[1,1,2,3,3,3-hexafluoro-2-(trifluoromethoxy)propoxy]-propanoic acid was adsorbed until reaching the breakthrough point, was charged into a dryer and left at a temperature of 99° C. for 48 hours. The desorption amount was taken as the same as an adsorption amount in adsorption again after the desorption.

[2] = normal temperature; cited from earlier work

## O=C(O)C(F)(OC(F)(F)C(F)(OC(F)(F)F)C(F)(F)F)C(F)(F)F (stereo not drawn) [2,3,3,3-tetrafluoro-2-[1,1,2,3,3,3-hexafluoro-2-(trifluoromethoxy)propoxy]-propanoic acid]
Solubility in water
  solubility in water relative to perfluorooctanoic acid (PFOA): about 50 times
[1]
  desorption compared with perfluorohexanoic acid: higher desorption
[2]
  solubility in water: about 10%
